Experiment [1] concerns rat mast cells.
Experiment [2] has as its system C. albicans. Description: Micro-/macrodilutional assay, C. albicans. It is filed as cell-based, Candida albicans. The method, then:
(§1) Inhibition of growth of E. coli was assessed in a microdilutional timed kill assay. (See FIG. 22) Bacteria and Candida albicans were grown overnight on trypticase soy agar (TSA) and Sobouraud dextrose agar (SDA) plates, respectively, were suspended into RPMI-1640 medium (Bio-Whittaker) and adjusted to a final concentration of 8×10^3 cfu/ml in […] in plastic microdilution trays. […] Plates were incubated at 37° C. with gentle agitation over 24 hours. At 6 hr and 24 hr time points, 10 to […] aliquots from each well were quantitatively cultured by serial 100-fold dilutions onto TSA and SDA plates.
(§2) Data were compiled from six experiments. Macrodilution assays were performed in 12×75 mm borosilicate glass tubes. Organisms were grown and harvested, as described in Roilides, E., et al., J Infect Dis. 163:579 (1991), and adjusted to a final inoculum concentration of 8×10^3 cfu/ml in 400 μl. […] Tubes were incubated at 37° C. with gentle agitation over 24 hours. At 6 and 24 hour time points, 100 μl aliquots from each tube were quantitatively cultured by serial 100-fold dilutions onto TSA and SDA plates.

Experiment [3] relates to MCF-7. The experiment in a line: Soft agar clonal growth assay, MCF-7. Type of experiment: cell-based, human. The settings on record: exogenous AM.
Experiment [4] has as its system rat isolated islets. The experiment in a line: Insulin release from rat isolated islets (RIA). Type of experiment: cell-based. The method, then:
(§3) Dose-dependent increase of intracellular cAMP in the islets following addition of AM. Islets from six rats were isolated following well-established protocols (Gray, et al., Diabetes 33, 1055 (1984)). Assays were performed in 24-well plates (90 islets per well). After a 45 min incubation in […] medium containing 5.6 mM glucose, a second incubation in RPMI containing 20.6 mM glucose and the proper concentration of AM and/or the antibody was performed. Supernatants from both incubations were tested by radioimmunoassay (RIA) for insulin (Amersham, Arlington Heights, Ill.). The ratio between the insulin concentration found in the high glucose supernatant and the insulin measured in the low glucose solution is represented in ordinates. After collecting the medium, the islets from the same experiments were saved for analysis of cAMP contents (Korman, et al., Cancer Res. 46, 1214 (1986)). Islets were extracted in 50% ethanol and centrifuged, and the supernatants were tested for cAMP using a RIA kit (New England Nuclear, Boston, Mass.) following manufacturer's instructions. The experiments were repeated three times and a representative example shown. Data are means±standard deviations of two wells.

The test system of experiment [5] is tumor cell lines (lung, colon, breast, brain, and ovary). It is filed as cell-based, human. The conditions noted are these: R0-grown cultures; AM 0.1 μM to 100 μM, 0.1 nM to 100 nM. From the text:
Results Obtained by Immunohistochemical (IHc) and in situ RT-PCR examination of paraffin-embedded RO-adapted cell lines were consistent with previously reported data on normal lung and pathological lung specimens (Martinez, A., et al., Endocrinology 136:4099-4105 (1995)). […] To further investigate this suspected phenomenon, MTT assay techniques were used to examine the effects of AM on the growth of several diverse tumor cell lines (lung, colon, breast, brain, and ovary). […] Since the test cells were known to produce authentic AM peptide, we assumed that this inability to stimulate growth with extrinsic ligand could possibly mean that the cells has already achieved maximal proliferative effects using their own AM.
i. Growth Assays: MTT techniques were performed as previously described (Nakanishi, Y. F., et al., Exper. Cell Biol. 56:74-85 (1988)). In brief, a single cell suspension of 2×10^5 cells/ml (50 μl/well) is seeded into 96-well PVC plates and an appropriate concentration of MoAb-G6 and AM was added in a volume of 50 μl. The assay is performed in TIS medium (RMPI 1640 plus 10 μg/ml transferrin, 10 μg/ml insulin and 3×10^−8M sodium selenite). […] The Biorad Microplate Manager plate reader and software was used to determine the change in number of viable cells from dye reduction measured by absorbance at 570 nm. […]

For experiment [6], the system named is S. aureus. Description: Micro-/macrodilutional assays, S. aureus. Type of experiment: cell-based, Staphylococcus aureus. The conditions noted are these: microdilutional or macrodilutional assays. On the procedure: as §1, §2
(In general: Broth dilution looks for growth in wells or tubes with falling amounts of substance.)

Experiment [7] concerns E. coli. Description: Macrodilution assay, E. coli. It is filed as cell-based, Escherichia coli. The conditions noted are these: E. coli. On the procedure: as §2
Experiment [8] relates to RINm, N289, TR4, CRL 2057, CRL 1777, CRL 2055. Description: Insulin secretion of insulin-producing cell lines. It is filed as cell-based. The conditions noted are these: six insulin-producing cell lines. From the text:
A similar mechanism has been described for amylin (R. A. Pittner et al., J. Cell. Biochem. 55S, 19 (1994)).

The subject of experiment [9] is AM receptor. Description: cAMP assay (RIA), MCF-7. It is filed as cell-based, human. On the procedure: k. cAMP Assays: Cyclic AMP was assayed by RIA using a kit obtained from New England Nuclear (Boston, Mass.). […] The supernatants were tested for cAMP using the RIA kit following the manufacturer's instructions.
Background: cAMP levels reflect the balance of adenylyl cyclase and phosphodiesterase activity.

The test system of experiment [10] is rat isolated islets. Description: cAMP content of rat isolated islets (RIA). It is filed as cell-based. The conditions noted are these: after addition of AM. The method, then:
as §3

This note sets out measurements from patent US7939639B2, “Functional role of adrenomedullin (AM) and the gene related product (PAMP) in human pathology and physiology” (The United States of America as represented by the …, priority 1995, dated 2011).

Each structure is given as a SMILES string. Entries after “also recorded” stand apart in the source; their conditions may differ.

Consider `CC[C@H](C)[C@H](NC(=O)[C@H](CCC(N)=O)NC(=O)[C@H](Cc1c[nH]cn1)NC(=O)[C@H](C)NC(=O)[C@H](CC(C)C)NC(=O)[C@H](CCCCN)NC(=O)[C@H](CCC(N)=O)NC(=O)[C@@H](NC(=O)[C@@H](NC(=O)[C@@H]1CSSC[C@H](NC(=O)CNC(=O)[C@H](Cc2ccccc2)NC(=O)[C@H](CO)NC(=O)[C@H](CCCNC(=N)N)NC(=O)[C@H](CC(C)C)NC(=O)CNC(=O)[C@H](CCC(N)=O)NC(=O)[C@H](Cc2ccccc2)NC(=O)[C@H](CC(N)=O)NC(=O)[C@H](CC(N)=O)NC(=O)[C@H](CCSC)NC(=O)[C@H](CO)NC(=O)[C@H](CCC(N)=O)NC(=O)[C@H](CCCNC(=N)N)NC(=O)[C@@H](N)Cc2ccc(O)cc2)C(=O)N[C@@H](CCCNC(=N)N)C(=O)N[C@@H](Cc2ccccc2)C(=O)NCC(=O)N[C@@H]([C@@H](C)O)C(=O)N1)[C@@H](C)O)C(C)C)C(=O)N[C@@H](Cc1ccc(O)cc1)C(=O)N[C@@H](CCC(N)=O)C(=O)N[C@@H](Cc1ccccc1)C(=O)N[C@H](C(=O)N[C@@H](CC(=O)O)C(=O)N[C@@H](CCCCN)C(=O)N[C@@H](CC(=O)O)C(=O)N[C@@H](CCCCN)C(=O)N[C@@H](CC(=O)O)C(=O)N[C@@H](CC(N)=O)C(=O)N[C@H](C(=O)N[C@@H](C)C(=O)N1CCC[C@H]1C(=O)N[C@@H](CCCNC(=N)N)C(=O)N[C@@H](CO)C(=O)N[C@@H](CCCCN)C(=O)N[C@H](C(=O)N[C@@H](CO)C(=O)N1CCC[C@H]1C(=O)N[C@@H](CCC(N)=O)C(=O)NCC(=O)N[C@@H](Cc1ccc(O)cc1)C(N)=O)[C@@H](C)CC)C(C)C)[C@@H](C)O` [AM], for which a half-maximal response in experiment [1] (EC50) required 7.9 ± 3.9 µM. In experiment [2], the “antimicrobial effect against C. albicans” value is 73%±8.1. Also, the “activity against C. albicans” value in experiment [2] (after 6 hours of incubation) is given as “activity”. In addition, the “clonal growth in soft agar” value in experiment [3] is recorded as “elevated clonal growth”. For the same compound, the “inhibition of insulin secretion” value in experiment [4] (AM concentration of 1 μM, freshly isolated islets) worked out at 78%. Moreover, the “effect of AM on insulin secretion” value in experiment [4] (isolated islets) is “inhibits insulin secretion in a dose-dependent manner; also recorded: dose-dependent reduction of insulin secretion; also recorded: reduces insulin secretion”. Moreover, the “stimulation of growth by exogenous AM” value in [5] is “ineffective in stimulating growth”. Further, the “growth suppressive activity against S. aureus” value in experiment [6] is listed as “ineffective; also recorded: no apparent growth suppressive activity”. Besides, the “antimicrobial activity, macrodilution, 6 hours” value in experiment [7] (6 hours incubation) is “no activity”. The “antimicrobial activity, macrodilution, 24 hours” value in [7] (24 hours incubation) is given as “somewhat more active than PAMP; also recorded: slightly more active than PAMP”. Moreover, the “change in insulin secretion rate” value in experiment [8] was “no change in insulin secretion rate; also recorded: not directly affected”. In addition, the “effect on cAMP” value in experiment [9] (MCF-7) is given as “activated; also recorded: rapid increase in cellular cAMP”. Also, the “maximum elevation of cellular cAMP” value in [9] (relative to normal control) is “three times that of the normal control”. The “cAMP levels in the islets” value in experiment [10] is given as “Elevating levels of cAMP; also recorded: cAMP levels increased”.

Broadly, the EC50 is the concentration at which the effect is half-maximal. A lower EC50 goes with an effect from little substance.
